Counter-ions that a name gives are not always drawn. Where a SMILES comes first, the peptide text is derived from it. [ ]: non-standard residue; d: D form. pGlu = O=C1CC[C@@H](C(=O)O)N1
These compounds were tested against T1, human serum kallikrein (Homo sapiens, UniProt P03952) (assay: Inhibitory activity against kallikrein (synthetic substrate S-2302)). Settings: Table 2; substrate S-2302, pH 8.0, 37° C.; read-out: IC50 of Known Compound, Kallikrein.
T1 construct: purchased Kabi Co., Ltd
Type: biochemical
Excerpt: (§1) As synthetic substrates for examining the activity of inhibitor for inhibiting digestion of the substrates with enzyme, there were used PS-994 (H-D-Lys(Tos)-Phe-Lys-CHA.2HCl; manufactured by Nitto Boseki Co., Ltd.) for plasmin, PS-915 (H-D-Phe-Pro-Arg-CHA.2HCl; manufactured by Nitto Boseki Co., Ltd.) for thrombin and trypsin; PS-2000 (Z-D-Lys(HCO)-Gly-Arg-CHA.HCl; manufactured by Nitto Boseki Co., Ltd.) for factor Xa; S-2302 (H-D-Pro-Phe-Arg-pNA; manufactured by Kabi Co., Ltd.) for kallikrein; and [drawing 2] manufactured by Nitto Boseki Co., Ltd.) for urokinase.
(§2) As plasmin, thrombin, trypsin, factor Xa, kallikrein and urokinase, there were used 0.3 CU/ml of standard plasmin from Sankyo Color Test α2 -PI Measurement Kit, 1.2 NIH U/ml of thrombin from Sankyo Color Test AT-III Measurement Kit, 2 μg/ml of trypsin of Code 3703 of Worthington, 0.25 U/ml of human factor Xa manufactured by Boehringer Mannheim, 0.12 U/ml of human serum kallikrein manufactured by Kabi Co., Ltd. and 1000 U/ml of Urokinase 60000 (60,000 U/vial) manufactured by Mochida Pharmaceutical Co., Ltd., respectively. As a stopping (color forming) solution, there was used the one from the kit of Sankyo Color Test in the case of CHA type substrate. Enzyme reactions were carried out at 37° C.
To 0.4 ml of buffer solution (150 mM sodium chloride aqueous solution containing 50 mM Tris, pH 8.0) is added 0.1 ml of an aqueous solution of the inhibitor. After the mixture is heated for 5 minutes, 0.1 ml of kallikrein solution (containing 0.5% bovine serum albumin, No. A-8022 manufactured by Sigma Co.) is added thereto followed by reaction for 5 minutes. Further 10 mM S-2302 aqueous solution (0.1 ml) is added thereto. After reacting for 5 minutes, 5 ml of 20% acetic acid aqueous solution is added to terminate the reaction. Absorbance is measured at 405 nm and IC50 is determined according to the method described above.

T1 sequence (P03952 391-638 limits assumed): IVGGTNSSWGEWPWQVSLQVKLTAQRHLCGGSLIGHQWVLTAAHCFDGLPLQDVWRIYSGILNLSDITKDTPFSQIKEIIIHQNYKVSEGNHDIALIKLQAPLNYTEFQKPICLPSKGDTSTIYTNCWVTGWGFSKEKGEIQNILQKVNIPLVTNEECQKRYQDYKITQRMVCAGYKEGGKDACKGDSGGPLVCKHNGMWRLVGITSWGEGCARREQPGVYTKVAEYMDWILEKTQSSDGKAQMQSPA
T1 sequence (P03952 20-390 partner limits assumed): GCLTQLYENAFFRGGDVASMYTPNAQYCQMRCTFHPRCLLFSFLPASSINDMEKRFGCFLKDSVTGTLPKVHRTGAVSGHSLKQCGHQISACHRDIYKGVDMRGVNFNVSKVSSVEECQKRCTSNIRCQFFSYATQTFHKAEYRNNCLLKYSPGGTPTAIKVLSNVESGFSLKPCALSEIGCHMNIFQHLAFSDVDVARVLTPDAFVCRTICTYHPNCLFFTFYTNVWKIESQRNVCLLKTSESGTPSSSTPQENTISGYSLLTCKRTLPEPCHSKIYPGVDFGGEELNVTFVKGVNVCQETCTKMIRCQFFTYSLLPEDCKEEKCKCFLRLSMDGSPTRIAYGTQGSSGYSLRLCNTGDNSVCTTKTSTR

Compound `CC(=O)N[C@@H](CC(C)C)C(=O)N[C@@H](CC(C)C)C(=O)N[C@H](C=O)CCCNC(=N)N` [Example A1, acetyl-L-leucyl-L-leucyl-L-argininal, reference compound] has an IC50 of 6.9 µM.

Same assay, conditions: Table 3; substrate S-2302, pH 8.0, 37° C.; read-out: IC50, kallikrein (Table 3)

In order of falling IC50:
1. N-benzyloxycarbonyl-D-pyroglutamyl-L-prolyl-L-argininal hydrochloride [Example 6]  13 µM
2. N-benzyloxycarbonyl-L-pyroglutamyl-L-alanyl-L-argininal hydrochloride [Example 2]  7.8 µM
3. N=C(N)NCCC[C@@H](C=O)NC(=O)[C@@H]1CCCN1C(=O)[C@@H]1CCC(=O)N1 [Example 13, L-pyroglutamyl-L-prolyl-L-argininal 1/2 sulfate] ([pGlu]-Pro-Arg-aldehyde)  5.5 µM
4. N-benzyloxycarbonyl-L-pyroglutamyl-L-prolyl-L-argininal hydrochloride [Example 1]  5 µM
5. N-benzyloxycarbonyl-D-pyroglutamyl-L-leucyl-L-argininal hydrochloride [Example 7]  3.1 µM
6. N-benzyloxycarbonyl-D-pyroglutamyl-L-phenylalanyl-L-argininal hydrochloride [Example 9]  0.87 µM
7. N-benzyloxycarbonyl-L-pyroglutamyl-L-phenylalanyl-L-argininal hydrochloride [Example 3]  0.42 µM

Each compound was assayed against T2, urokinase (Homo sapiens, UniProt P00749) (assay: Inhibitory activity against urokinase (synthetic substrate MUK-34)). Settings: Table 3; substrate MUK-34, pH 8.20, 37° C.
T2 construct: purchased Mochida Pharmaceutical Co., Ltd. Urokinase 60000 (60,000 U/vial)
Type: biochemical
Excerpt: as §1, §2
To 0.3 ml of buffer solution (150 mM sodium chloride aqueous solution containing 50 mM Tris, pH 8.20) is added 0.1 ml of an aqueous solution of the inhibitor having various concentrations. After the mixture is heated for 5 minutes, 0.1 ml of urokinase solution (150 mM sodium chloride aqueous solution containing 50 mM Tris and 0.1% BSA, pH 8.20) is added thereto and the mixture is reacted for 5 minutes. Then 10 mM MUK-34 aqueous solution (0.1 ml) is added to the mixture. After reacting for 5 minutes, 10% acetic acid aqueous solution (2.0 ml) is added to terminate the reaction. Absorbance is measured at 405 nm and IC50 is determined according to the method described above.

In order of falling IC50:
1. N-benzyloxycarbonyl-L-pyroglutamyl-L-phenylalanyl-L-argininal hydrochloride [Example 3]  76 µM
2. N-benzyloxycarbonyl-D-pyroglutamyl-L-phenylalanyl-L-argininal hydrochloride [Example 9]  40 µM
3. N-benzyloxycarbonyl-D-pyroglutamyl-L-leucyl-L-argininal hydrochloride [Example 7]  30 µM
4. N-benzyloxycarbonyl-L-pyroglutamyl-L-prolyl-L-argininal hydrochloride [Example 1]  22 µM
5. N-benzyloxycarbonyl-L-pyroglutamyl-L-alanyl-L-argininal hydrochloride [Example 2]  7.6 µM
6. N-benzyloxycarbonyl-D-pyroglutamyl-L-prolyl-L-argininal hydrochloride [Example 6]  1.1 µM
7. N=C(N)NCCC[C@@H](C=O)NC(=O)[C@@H]1CCCN1C(=O)[C@@H]1CCC(=O)N1 [Example 13, L-pyroglutamyl-L-prolyl-L-argininal 1/2 sulfate] ([pGlu]-Pro-Arg-aldehyde)  0.68 µM

The compounds below were run against T3, trypsin (Bos taurus, UniProt P00760) (assay: Inhibitory activity against trypsin (synthetic substrate PS-915)). Settings: Table 3; substrate PS-915, pH 8.0, 37° C.
T3 construct: purchased Worthington Code 3703
T3 sequence (P00760 24-246): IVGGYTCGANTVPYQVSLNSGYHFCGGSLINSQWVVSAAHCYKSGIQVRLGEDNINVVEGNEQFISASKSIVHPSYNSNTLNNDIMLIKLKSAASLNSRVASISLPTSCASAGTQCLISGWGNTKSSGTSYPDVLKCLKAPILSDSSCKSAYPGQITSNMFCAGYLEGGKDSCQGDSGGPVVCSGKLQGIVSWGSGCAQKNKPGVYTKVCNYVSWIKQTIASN
Type: biochemical
Excerpt: as §1, §2
To 0.5 ml of buffer solution (150 mM sodium chloride aqueous solution containing 150 mM Tris, pH 8.0) is added 0.1 ml of an aqueous solution of the inhibitor. After the mixture is heated for 5 minutes, 0.1 ml of trypin solution is added thereto. Further 0.1 ml of PS-915 solution (10 mM) is added followed by reaction for 5 minutes. Thereafter, 2 ml of the stopping color forming solution [containing 2.5 mg/ml of soybean trypsin inhibitor (manufactured by Sigma Co., No. T-9003)] is added. After allowing to stand for 10 minutes, absorbance is measured at 700 nm and IC50 is determined according to the method described above.

In order of falling IC50:
1. N-benzyloxycarbonyl-D-pyroglutamyl-L-phenylalanyl-L-argininal hydrochloride [Example 9]  1 µM
2. N-benzyloxycarbonyl-D-pyroglutamyl-L-leucyl-L-argininal hydrochloride [Example 7]  0.43 µM
3. N-benzyloxycarbonyl-L-pyroglutamyl-L-phenylalanyl-L-argininal hydrochloride [Example 3]  0.069 µM
4. N-benzyloxycarbonyl-D-pyroglutamyl-L-prolyl-L-argininal hydrochloride [Example 6]  0.062 µM
5. N=C(N)NCCC[C@@H](C=O)NC(=O)[C@@H]1CCCN1C(=O)[C@@H]1CCC(=O)N1 [Example 13, L-pyroglutamyl-L-prolyl-L-argininal 1/2 sulfate] ([pGlu]-Pro-Arg-aldehyde)  0.02 µM
6. N-benzyloxycarbonyl-L-pyroglutamyl-L-alanyl-L-argininal hydrochloride [Example 2]  0.0074 µM
7. N-benzyloxycarbonyl-L-pyroglutamyl-L-prolyl-L-argininal hydrochloride [Example 1]  0.0062 µM

What follows are compounds tested against plasmin (Homo sapiens, UniProt P00747) (assay: Inhibitory activity against plasmin (synthetic substrate PS-994)). Settings: Table 3; substrate PS-994, pH 7.8, 37° C.
Chain of plasmin (P00747 97-810): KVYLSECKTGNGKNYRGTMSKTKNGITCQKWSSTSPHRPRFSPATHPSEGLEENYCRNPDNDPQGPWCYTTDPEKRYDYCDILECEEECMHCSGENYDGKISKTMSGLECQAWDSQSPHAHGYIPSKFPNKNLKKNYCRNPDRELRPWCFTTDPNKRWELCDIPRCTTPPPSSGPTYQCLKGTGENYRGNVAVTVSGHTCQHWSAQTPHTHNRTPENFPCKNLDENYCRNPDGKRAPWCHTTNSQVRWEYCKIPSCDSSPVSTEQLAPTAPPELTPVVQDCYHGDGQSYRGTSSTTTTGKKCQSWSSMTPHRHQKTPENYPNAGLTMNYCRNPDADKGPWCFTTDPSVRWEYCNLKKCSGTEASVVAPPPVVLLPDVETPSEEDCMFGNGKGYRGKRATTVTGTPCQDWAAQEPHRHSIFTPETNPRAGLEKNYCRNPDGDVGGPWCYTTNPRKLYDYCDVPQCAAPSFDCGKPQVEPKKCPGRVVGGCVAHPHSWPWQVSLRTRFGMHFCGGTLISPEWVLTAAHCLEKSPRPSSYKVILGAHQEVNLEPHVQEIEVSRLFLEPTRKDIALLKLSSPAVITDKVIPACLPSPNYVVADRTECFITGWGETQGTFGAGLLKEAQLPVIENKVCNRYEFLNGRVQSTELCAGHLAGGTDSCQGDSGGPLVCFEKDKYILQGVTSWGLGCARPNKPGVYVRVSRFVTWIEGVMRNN
Type: biochemical
Procedure: As a stopping (color forming) solution, there was used the one from the kit of Sankyo Color Test in the case of CHA type substrate. Enzyme reactions were carried out at 37° C.
To 0.4 ml of buffer solution (150 mM sodium chloride aqueous solution containing 100 mM Tris, pH 7.8) is added an aqueous solution (0.1 ml) of the inhibitor having various concentrations. The mixture is heated for 5 minutes. After 0.2 ml of plasmin solution is added thereto, the mixture is reacted for 5 minutes. […] After completion of the reaction, 2.0 ml of the stopping color forming solution is added.

In order of falling IC50:
1. N-benzyloxycarbonyl-L-pyroglutamyl-L-alanyl-L-argininal hydrochloride [Example 2]  7.2 µM
2. N-benzyloxycarbonyl-D-pyroglutamyl-L-prolyl-L-argininal hydrochloride [Example 6]  4.6 µM
3. N-benzyloxycarbonyl-L-pyroglutamyl-L-prolyl-L-argininal hydrochloride [Example 1]  3.2 µM
4. N-benzyloxycarbonyl-D-pyroglutamyl-L-leucyl-L-argininal hydrochloride [Example 7]  2.8 µM
5. N=C(N)NCCC[C@@H](C=O)NC(=O)[C@@H]1CCCN1C(=O)[C@@H]1CCC(=O)N1 [Example 13, L-pyroglutamyl-L-prolyl-L-argininal 1/2 sulfate] ([pGlu]-Pro-Arg-aldehyde)  1.4 µM
6. N-benzyloxycarbonyl-D-pyroglutamyl-L-phenylalanyl-L-argininal hydrochloride [Example 9]  1.3 µM
7. N-benzyloxycarbonyl-L-pyroglutamyl-L-phenylalanyl-L-argininal hydrochloride [Example 3]  1.1 µM

What follows are compounds tested against T4, human factor Xa (Homo sapiens, UniProt P00742) (assay: Inhibitory activity against factor Xa (synthetic substrate PS-2000)). Settings: Table 3; substrate PS-2000, pH 8.5, 37° C.
T4 construct: purchased Boehringer Mannheim
T4 sequence (P00742 235-488 limits assumed): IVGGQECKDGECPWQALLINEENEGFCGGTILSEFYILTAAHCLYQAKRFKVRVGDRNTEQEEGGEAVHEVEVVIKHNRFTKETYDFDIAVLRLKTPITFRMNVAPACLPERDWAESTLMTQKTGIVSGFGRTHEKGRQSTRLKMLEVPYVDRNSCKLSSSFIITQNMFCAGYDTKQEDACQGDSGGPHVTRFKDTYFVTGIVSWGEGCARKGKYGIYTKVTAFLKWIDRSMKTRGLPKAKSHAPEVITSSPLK
T4 sequence (P00742 41-179 partner limits assumed): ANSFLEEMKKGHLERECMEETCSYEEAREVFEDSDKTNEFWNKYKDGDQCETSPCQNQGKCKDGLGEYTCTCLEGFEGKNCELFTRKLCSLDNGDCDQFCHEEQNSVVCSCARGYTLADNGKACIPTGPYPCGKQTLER
Type: biochemical
Excerpt: as §1, §2
To 0.3 ml of buffer solution (150 mM sodium chloride aqueous solution containing 50 mM Tris, pH 8.5) is added 0.1 ml of an aqueous solution of the inhibitor having various concentrations. After the mixture is heated for 5 minutes, 0.1 ml of factor Xa solution (150 mM sodium chloride aqueous solution containing 50 mM Tris and 20 mM calcium chloride, pH 8.5) is added thereto and the mixture is reacted for 5 minutes. Further 5% polyvinylpyrrolidone solution (0.1 ml) containing 10 mM PS-2000 is added followed by reaction for 5 minutes. Thereafter, 2 ml of the stopping color forming solution is added. After allowing to stand for 10 minutes, absorbance is measured at 700 nm and IC50 is determined according to the method described above.

In order of falling IC50:
1. N=C(N)NCCC[C@@H](C=O)NC(=O)[C@@H]1CCCN1C(=O)[C@@H]1CCC(=O)N1 [Example 13, L-pyroglutamyl-L-prolyl-L-argininal 1/2 sulfate] ([pGlu]-Pro-Arg-aldehyde)  13 µM
2. N-benzyloxycarbonyl-D-pyroglutamyl-L-prolyl-L-argininal hydrochloride [Example 6]  5 µM
3. N-benzyloxycarbonyl-D-pyroglutamyl-L-leucyl-L-argininal hydrochloride [Example 7]  4.7 µM
4. N-benzyloxycarbonyl-D-pyroglutamyl-L-phenylalanyl-L-argininal hydrochloride [Example 9]  0.72 µM
5. N-benzyloxycarbonyl-L-pyroglutamyl-L-phenylalanyl-L-argininal hydrochloride [Example 3]  0.59 µM
6. N-benzyloxycarbonyl-L-pyroglutamyl-L-alanyl-L-argininal hydrochloride [Example 2]  0.52 µM
7. N-benzyloxycarbonyl-L-pyroglutamyl-L-prolyl-L-argininal hydrochloride [Example 1]  0.36 µM

Each compound was assayed against thrombin (Bos taurus, UniProt P00735) (assay: Inhibitory activity against thrombin (synthetic substrate PS-915)). Settings: Table 3; substrate PS-915, pH 8.5, 37° C.
Type: biochemical
Excerpt: as §1, §2
To 0.4 ml of buffer solution (150 mM sodium chloride aqueous solution containing 150 mM Tris, pH 8.5) is added an aqueous solution (0.1 ml) of the inhibitor having various concentrations. The mixture is heated for 5 minutes. After 0.2 ml of thrombin solution is added thereto, the mixture is reacted for 5 minutes. Then 0.1 ml of PS-915 solution (10 mM) is added followed by reaction for 5 minutes. Thereafter, 2 ml of the stopping color forming solution is added. After allowing to stand for 10 minutes, absorbance is measured at 700 nm and IC50 is determined according to the method described above.

Going from `N=C(N)NCCC[C@@H](C=O)NC(=O)[C@@H]1CCCN1C(=O)[C@@H]1CCC(=O)N1` [Example 13, L-pyroglutamyl-L-prolyl-L-argininal 1/2 sulfate] ([pGlu]-Pro-Arg-aldehyde) to “N-benzyloxycarbonyl-D-pyroglutamyl-L-leucyl-L-argininal hydrochloride [Example 7]”, the IC50 rises from 22 µM to greater than 100 µM. The first is the more potent here.

Compared with “N-benzyloxycarbonyl-D-pyroglutamyl-L-phenylalanyl-L-argininal hydrochloride [Example 9]”, “N-benzyloxycarbonyl-D-pyroglutamyl-L-prolyl-L-argininal hydrochloride [Example 6]” is lower in IC50: greater than 100 µM for the first, 22 µM for the second.

Going from “N-benzyloxycarbonyl-L-pyroglutamyl-L-alanyl-L-argininal hydrochloride [Example 2]” to “N-benzyloxycarbonyl-L-pyroglutamyl-L-phenylalanyl-L-argininal hydrochloride [Example 3]”, the IC50 rises from 5.9 µM to 35 µM (5.9-fold).

With “N-benzyloxycarbonyl-L-pyroglutamyl-L-prolyl-L-argininal hydrochloride [Example 1]” the IC50 was 0.056 µM.
